Reference: ChEMBL document CHEMBL1275364, “Diaryldiamines with dual inhibition of the histamine H(3) receptor and the norepinephrine transporter and the efficacy of 4-(3-(methylamino)-1-phenylpropyl)-6-(2-(pyrrolidin-1-yl)ethoxy)naphthalen-1-ol in pain” (J Med Chem, 2010)
In brackets after ≈: the same amount, converted by molar mass. Each block holds one compound with its values, some of them ahead of it.

Columns and labels:
Histamine H3 receptor [1] = target: Histamine H3 receptor (Rattus norvegicus, UniProt Q9QYN8)
Sequence of Histamine H3 receptor (Rattus norvegicus, UniProt Q9QYN8) (Q9QYN8 whole entry): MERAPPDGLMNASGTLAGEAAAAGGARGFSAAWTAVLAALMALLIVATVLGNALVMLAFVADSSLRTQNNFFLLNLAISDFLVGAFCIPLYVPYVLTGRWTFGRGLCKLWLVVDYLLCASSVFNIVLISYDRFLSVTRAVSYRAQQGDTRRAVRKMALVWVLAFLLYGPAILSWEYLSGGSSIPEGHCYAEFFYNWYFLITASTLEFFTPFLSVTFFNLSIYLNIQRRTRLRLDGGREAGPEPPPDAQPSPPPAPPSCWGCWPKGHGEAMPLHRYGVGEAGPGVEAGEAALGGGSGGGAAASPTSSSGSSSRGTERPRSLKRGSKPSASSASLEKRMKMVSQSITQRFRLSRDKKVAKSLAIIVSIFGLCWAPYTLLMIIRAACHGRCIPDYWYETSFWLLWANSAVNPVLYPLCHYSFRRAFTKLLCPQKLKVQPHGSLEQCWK
Description: Displacement of [3H]N-R-methylhistamine from rat H3 receptor

Histamine H3 receptor [2] = target: T1, Histamine H3 receptor (Homo sapiens, UniProt Q9Y5N1); experiment: Antagonist activity at human recombinant histamine H3 receptor expressed in HEK cells assessed as inhibition of RAMH-induced [35S]GTPgammaS binding by liquid scintillation counting; format: functional, cell-based; conditions: HEK293
T1 sequence (Q9Y5N1 whole entry): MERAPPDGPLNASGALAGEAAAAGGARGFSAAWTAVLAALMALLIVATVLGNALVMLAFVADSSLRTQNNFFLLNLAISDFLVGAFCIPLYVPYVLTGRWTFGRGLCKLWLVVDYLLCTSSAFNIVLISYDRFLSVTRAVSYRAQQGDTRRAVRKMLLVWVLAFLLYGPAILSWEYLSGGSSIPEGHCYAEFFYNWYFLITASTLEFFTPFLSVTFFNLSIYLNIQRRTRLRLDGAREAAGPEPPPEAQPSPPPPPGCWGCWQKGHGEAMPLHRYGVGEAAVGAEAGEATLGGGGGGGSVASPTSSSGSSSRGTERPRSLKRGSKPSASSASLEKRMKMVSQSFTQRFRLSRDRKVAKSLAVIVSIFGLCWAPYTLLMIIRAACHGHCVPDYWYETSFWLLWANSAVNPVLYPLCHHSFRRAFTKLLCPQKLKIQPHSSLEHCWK

Transporter = Transporter (Rattus norvegicus, UniProt Q63380); experiment: biochemical
Sequence of Transporter (Q63380 whole entry): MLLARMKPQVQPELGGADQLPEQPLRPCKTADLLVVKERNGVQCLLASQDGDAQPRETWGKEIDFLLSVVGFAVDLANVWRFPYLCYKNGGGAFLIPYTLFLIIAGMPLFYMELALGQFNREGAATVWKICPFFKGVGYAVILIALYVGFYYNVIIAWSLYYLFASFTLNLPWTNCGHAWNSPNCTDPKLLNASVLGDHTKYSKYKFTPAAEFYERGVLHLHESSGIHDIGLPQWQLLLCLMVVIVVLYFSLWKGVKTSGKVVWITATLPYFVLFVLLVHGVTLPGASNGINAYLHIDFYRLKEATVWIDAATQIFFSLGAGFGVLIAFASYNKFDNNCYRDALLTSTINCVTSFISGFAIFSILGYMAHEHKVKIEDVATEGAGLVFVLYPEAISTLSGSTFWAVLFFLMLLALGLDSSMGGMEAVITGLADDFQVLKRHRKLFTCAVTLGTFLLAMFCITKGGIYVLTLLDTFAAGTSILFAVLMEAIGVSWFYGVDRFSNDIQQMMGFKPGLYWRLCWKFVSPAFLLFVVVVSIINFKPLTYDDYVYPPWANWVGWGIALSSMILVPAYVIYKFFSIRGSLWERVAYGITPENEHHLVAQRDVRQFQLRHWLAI
Description: Displacement of [3H]nisoxetine from rat NET in rat cerebral cortex

Histamine H3 receptor [3] = target: T1, Histamine H3 receptor; experiment: biochemical
Description: Displacement of [3H]N-R-methylhistamine from human H3 receptor isolated from C6 cells

[4] = target: Sodium-dependent serotonin transporter (Homo sapiens, UniProt P31645)
Sequence of Sodium-dependent serotonin transporter (P31645 whole entry): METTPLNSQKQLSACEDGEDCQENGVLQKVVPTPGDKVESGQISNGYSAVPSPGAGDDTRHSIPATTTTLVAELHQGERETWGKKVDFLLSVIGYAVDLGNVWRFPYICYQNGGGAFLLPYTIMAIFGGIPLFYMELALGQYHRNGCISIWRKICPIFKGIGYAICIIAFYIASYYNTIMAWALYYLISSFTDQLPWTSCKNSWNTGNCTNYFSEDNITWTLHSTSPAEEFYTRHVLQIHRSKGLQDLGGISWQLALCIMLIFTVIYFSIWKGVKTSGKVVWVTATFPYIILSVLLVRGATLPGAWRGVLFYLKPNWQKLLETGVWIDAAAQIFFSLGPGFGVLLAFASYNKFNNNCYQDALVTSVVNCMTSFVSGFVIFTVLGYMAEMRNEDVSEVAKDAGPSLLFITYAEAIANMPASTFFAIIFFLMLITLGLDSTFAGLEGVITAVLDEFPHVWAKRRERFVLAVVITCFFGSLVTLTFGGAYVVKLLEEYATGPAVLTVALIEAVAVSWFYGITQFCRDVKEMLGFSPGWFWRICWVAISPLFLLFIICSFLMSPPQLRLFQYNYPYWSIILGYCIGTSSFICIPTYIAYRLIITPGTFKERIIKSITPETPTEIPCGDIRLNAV

[5] = Bioavailability in Sprague-Dawley rat at 1 mg/kg, ip and iv; format: ADME, organism-based; conditions: in vivo
Rattus norvegicus [6] = experiment: Ex vivo receptor occupancy of histamine H3 receptor in Sprague-Dawley rat osteoarthritis model at 10 mg/kg, ip; format: functional; conditions: route intraperitoneal
[7] = Half life in Sprague-Dawley rat at 1 mg/kg, iv; format: ADME, organism-based; set-up: dose 1 mg/kg, route intravenous; conditions: in vivo
[8] = Volume of distribution in Sprague-Dawley rat at 1 mg/kg, iv; format: ADME, organism-based; set-up: dose 1 mg/kg, route intravenous; conditions: in vivo
[9] = Clearance in Sprague-Dawley rat at 1 mg/kg, iv; format: ADME, organism-based; set-up: dose 1 mg/kg, route intravenous; conditions: in vivo
Rattus norvegicus [10] = experiment: Ex vivo receptor occupancy of NET in Sprague-Dawley rat osteoarthritis model at 10 mg/kg, ip; format: functional; conditions: route intraperitoneal
Rattus norvegicus [11] = experiment: Antiinflammatory activity in ip dosed Sprague-Dawley rat osteoarthritis model assessed as efficacy measured at 370 nM plasma concentration after 20 days; format: functional
Rattus norvegicus [12] = experiment: Ex vivo receptor occupancy of NET in Sprague-Dawley rat osteoarthritis model at 1 mg/kg, ip; format: functional; conditions: route intraperitoneal
[13] = Tmax in Sprague-Dawley rat at 1 mg/kg, ip; format: ADME, organism-based; set-up: dose 1 mg/kg, route intraperitoneal; conditions: in vivo
[14] = Cmax in Sprague-Dawley rat at 1 mg/kg, ip; format: ADME, organism-based; set-up: dose 1 mg/kg, route intraperitoneal; conditions: in vivo
Rattus norvegicus [15] = experiment: Antiinflammatory activity in Sprague-Dawley rat osteoarthritis model assessed as efficacy at 3 mg/kg, ip after 20 days; format: functional; conditions: route intraperitoneal
[16] = Plasma concentration in Sprague-Dawley rat osteoarthritis model at 3 mg/kg, ip after 45 mins; format: ADME, organism-based; set-up: dose 3 mg/kg, route intraperitoneal
Rattus norvegicus [17] = experiment: Antiinflammatory activity in Sprague-Dawley rat osteoarthritis model assessed as efficacy at 10 mg/kg, ip after 20 days; format: functional; conditions: route intraperitoneal
[18] = Plasma concentration in Sprague-Dawley rat osteoarthritis model at 10 mg/kg, ip after 45 mins; format: ADME, organism-based; set-up: dose 10 mg/kg, route intraperitoneal
Rattus norvegicus [19] = experiment: Ex vivo receptor occupancy of histamine H3 receptor in Sprague-Dawley rat osteoarthritis model at 3 mg/kg, ip; format: functional; conditions: route intraperitoneal
[20] = Plasma protein binding in Sprague-Dawley rat assessed as unbound fraction at 1 mg/kg, iv; format: ADME, organism-based; set-up: dose 1 mg/kg, route intravenous
Rattus norvegicus [21] = experiment: Ex vivo receptor occupancy of NET in Sprague-Dawley rat osteoarthritis model at 3 mg/kg, ip; format: functional; conditions: route intraperitoneal
Rattus norvegicus [22] = experiment: Antiinflammatory activity in ip dosed Sprague-Dawley rat osteoarthritis model assessed as efficacy measured after 20 days; format: functional; conditions: 480 h
Rattus norvegicus [23] = experiment: Ex vivo receptor occupancy of histamine H3 receptor in Sprague-Dawley rat osteoarthritis model at 1 mg/kg, ip; format: functional; conditions: route intraperitoneal
[24] = Plasma concentration in Sprague-Dawley rat osteoarthritis model at 1 mg/kg, ip after 45 mins; format: ADME, organism-based; set-up: dose 1 mg/kg, route intraperitoneal
[25] = Plasma protein binding in Sprague-Dawley rat at 1 mg/kg, iv; format: ADME, organism-based; set-up: dose 1 mg/kg, route intravenous; conditions: read-out: PPB (converted)

SMILES: CNCCCN(c1ccccc1)c1ccc(OCCN2CCCC2)cc1
- Ki (Histamine H3 receptor [1]): 0.72 nM
- Kb (Histamine H3 receptor [2]): 0.79 nM
- Ki (Transporter): 110 nM
- Ki (Histamine H3 receptor [3]): 0.28 nM
- Ki [4]: > 70 nM

SMILES: CNCCN(c1ccccc1)c1ccc(OCCN2CCCC2)cc1
- Ki (Histamine H3 receptor [1]): 5.4 nM
- Kb (Histamine H3 receptor [2]): 2.4 nM
- Ki (Transporter): 89 nM
- Ki (Histamine H3 receptor [3]): 1.6 nM
- Ki [4]: > 70 nM

SMILES: CNCCCC(c1ccccc1)c1ccc(OCCN2CCCC2)cc1 (centres undefined)
- Ki (Histamine H3 receptor [1]): 2.9 nM
- Kb (Histamine H3 receptor [2]): 2.1 nM
- Ki (Transporter): 14 nM
- Ki (Histamine H3 receptor [3]): 0.89 nM
- Ki [4]: > 70 nM

SMILES: CNCCC(c1ccccc1)c1ccc(OCCN2CCCC2)cc1 (centres undefined)
- Ki (Histamine H3 receptor [1]): 5.2 nM
- Ki (Transporter): 4.3 nM
- Ki (Histamine H3 receptor [3]): 1.4 nM
- Ki [4]: > 70 nM

More lines, main results first:

- Ki [4]: 2.4 nM
SMILES: CNCCC(c1ccccc1)c1cccc2ccccc12 (centres undefined)

- bioavailability [5]: 43%
- Ki (Histamine H3 receptor [1]): 37 nM
- half-life [7]: 720 min
- Kb (Histamine H3 receptor [2]): 8.3 nM
- Vd [8]: 8.2 L/kg
- clearance [9]: 7.67 mL/min/kg
- Tmax [13]: 15 min
- Cmax [14]: 210 ng/mL
- concentration at 0.75 h [16]: 382 ng/mL
- Ki (Transporter): 14 nM
- concentration at 0.75 h [18]: 1240 ng/mL
- Ki (Histamine H3 receptor [3]): 7.4 nM
- fraction unbound [20]: 0.33
- Ki [4]: 7 nM
- concentration at 0.75 h [24]: 129 ng/mL
- fraction unbound [25]: 0.33
SMILES: CNCCC(c1ccccc1)c1ccc(O)c2ccc(OCCN3CCCC3)cc12 (centres undefined)
- Activity (Rattus norvegicus [6]): 97%
- Activity (Rattus norvegicus [10]): 99%
- ED50 (Rattus norvegicus [11]): 150 ng/mL (≈ 0.371 µM)
- Activity (Rattus norvegicus [12]): 88%
- Activity (Rattus norvegicus [15]): 70%
- Activity (Rattus norvegicus [17]): 93%
- Activity (Rattus norvegicus [19]): 89%
- Activity (Rattus norvegicus [21]): 96%
- ED50 (Rattus norvegicus [22]): 1.2 mg/kg
- Activity (Rattus norvegicus [23]): 74%

- Ki (Histamine H3 receptor [1]): 48 nM
- Kb (Histamine H3 receptor [2]): 67 nM
- Ki (Transporter): 230 nM
SMILES: CNCCC(Oc1cccc2cc(OCCN3CCCC3)ccc12)c1ccccc1 (centres undefined)
